Experimental data reported in article PMC5339874, “Fluorene-9-bisphenol is anti-oestrogenic and may cause adverse pregnancy outcomes in mice” (Nature Communications, 2017).
Where two headings read alike, the source gives them in different places.

What was measured:
[1] = Analysis of BHPF in human serum (GC–MS); format: in vivo
Description: In China, college students usually undergo a physical examination before graduation. The volunteers in this study were senior students who were undergoing a physical examination in Beijing. Fifty male and 50 female healthy volunteers (mean age, 23.5±1.2 years) who habitually used plastic water bottles were randomly recruited to participate in this study in June 2015, after appropriate ethical approval was received from the Human Ethics Committee of the Peking University Peoples' Hospital. Each participant provided informed consent and volunteered to give one 10-ml random sample of blood. Fasting blood was collected at Peking University Hospital Medical Center with vacutainer blood collection device (Chengwu Yongkang Medical Products Ltd., China) between 8 and 9 h. […] The blood was collected directly into plain 10-ml glass vacutainer tubes and spun down 30 min later for serum preparation. The serum samples were stored in glass tubes at −80 °C until analysis. The samples were fortified with 5 ng of surrogate standard BHPF-d7, and the pH was adjusted to 6.5 with ammonium acetate. β-Glucuronidase/arylsulfatase (20 μl; Sigma-Aldrich, St Louis, MO) was added to the samples, and they were incubated at 37 °C for 20 h to allow deglucuronidation. […]

[2] = test system: MCF-7 human breast cancer cells; parameters: method as in earlier work; settings: granted patent CN102727470; cited from earlier work
[3] = target: T1, human oestrogen receptor β (Homo sapiens, UniProt Q92731); assay: Dual-luciferase reporter assay, full-length ERβ and ERE in JEG-3 cells; format: cell-based
T1 construct: expressed in transfected cells; host or cells: JEG-3 human choriocarcinoma cells
Experimental: Dual-luciferase reporter assays were carried out primarily according to the method described in a previous study. In short, full-length sequences of human oestrogen receptor α and β were amplified by RT-PCR using mRNA from MCF-7 (Supplementary Table 3), and inserted into a pSVSPORT1 (Invitrogen); the resulting constructs were termed pSVhERα and pSVhERβ. A reporter plasmid containing ERE was constructed by inserting four tandem repeats of an ERE of Xenopus laevis vitellogenin A2 into a pGL4.23 vector (Promega), and was termed pGL4-ERE-luc. […] The Renilla LUC control reporter construct pGL4.74-TK was purchased from Promega (Madison, WI). Human choriocarcinoma JEG-3 cells (ATCC No. HTB-36) were obtained from the American Type Culture Collection (ATCC; Manassas, VA) and were cultured in minimal essential medium (MEM, Invitrogen, Carlsbad, CA) containing 2 mM L-glutamine, 0.1 mM minimal essential medium nonessential amino acid solution (Invitrogen/Thermo Fisher Scientific, Grand Island, NY), and 10% fetal calf serum (FCS) at 37 °C in a humidified atmosphere containing 5% CO2. The cells (3 × 10^4 cells per well) were seeded in 24-well plates 24 h before transfection. The cells were transfected with pGL4-ERE-luc (5 ng per well), pGL 4.74-TK (0.2 ng per well) and either pSVhERα (5 ng per well) or pSVhERβ (5 ng per well) using Lipofectamine reagent (Invitrogen). At 24 h after transfection, the compounds in DMSO were added to the cultures at a volume ratio (v/v) of 0.1%. The cells were continuously cultured in medium supplemented with 1% charcoal-stripped FCS for another 24 h and then harvested, and cell extracts were assayed for firefly luciferase activity. The assays were performed in quadruplicate, and the results were expressed as the fold induction of the control after normalization against Renilla luciferase activity. Sigmoidal dose-effect curves were calculated using the GraphPad Prism 4 software. The IC50 values were calculated on the basis of the sigmoidal dose-effect curves. […]

[4] = target: T2, human oestrogen receptor α (Homo sapiens, UniProt P03372); assay: Dual-luciferase reporter assay, full-length ERα and ERE in JEG-3 cells; format: cell-based
T2 construct: expressed in transfected cells; host or cells: JEG-3 human choriocarcinoma cells
T2 sequence (P03372 1-595): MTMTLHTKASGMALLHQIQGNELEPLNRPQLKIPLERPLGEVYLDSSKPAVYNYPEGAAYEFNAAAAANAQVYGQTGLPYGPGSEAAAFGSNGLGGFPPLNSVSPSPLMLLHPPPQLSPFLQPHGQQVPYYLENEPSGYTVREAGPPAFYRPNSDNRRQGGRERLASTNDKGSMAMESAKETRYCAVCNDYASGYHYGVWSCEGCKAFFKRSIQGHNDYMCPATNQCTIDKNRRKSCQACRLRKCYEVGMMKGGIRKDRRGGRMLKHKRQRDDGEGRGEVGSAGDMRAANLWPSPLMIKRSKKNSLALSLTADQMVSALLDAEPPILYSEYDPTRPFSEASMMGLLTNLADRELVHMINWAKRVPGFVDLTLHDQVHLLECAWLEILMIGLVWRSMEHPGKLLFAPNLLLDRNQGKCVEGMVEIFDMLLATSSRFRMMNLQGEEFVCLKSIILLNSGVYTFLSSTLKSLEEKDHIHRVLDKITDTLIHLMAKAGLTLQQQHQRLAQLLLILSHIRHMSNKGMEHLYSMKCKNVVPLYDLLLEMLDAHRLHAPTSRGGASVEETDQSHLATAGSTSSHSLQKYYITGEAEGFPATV
Experimental: Dual-luciferase reporter assays were carried out primarily according to the method described in a previous study. In short, full-length sequences of human oestrogen receptor α and β were amplified by RT-PCR using mRNA from MCF-7 (Supplementary Table 3), and inserted into a pSVSPORT1 (Invitrogen); the resulting constructs were termed pSVhERα and pSVhERβ. A reporter plasmid containing ERE was constructed by inserting four tandem repeats of an ERE of Xenopus laevis vitellogenin A2 into a pGL4.23 vector (Promega), and was termed pGL4-ERE-luc. […] The Renilla LUC control reporter construct pGL4.74-TK was purchased from Promega (Madison, WI). […] The assays were performed in quadruplicate, and the results were expressed as the fold induction of the control after normalization against Renilla luciferase activity. Sigmoidal dose-effect curves were calculated using the GraphPad Prism 4 software. The IC50 values were calculated on the basis of the sigmoidal dose-effect curves. […]

[5] = coexisted with 1 × 10^−9 M E2, read-out: IC50, anti-oestrogenic activity
[6] = vs 1 nM E2, read-out: IC50 converted to mass concentration (converted)

T1 sequence (Q92731 whole entry): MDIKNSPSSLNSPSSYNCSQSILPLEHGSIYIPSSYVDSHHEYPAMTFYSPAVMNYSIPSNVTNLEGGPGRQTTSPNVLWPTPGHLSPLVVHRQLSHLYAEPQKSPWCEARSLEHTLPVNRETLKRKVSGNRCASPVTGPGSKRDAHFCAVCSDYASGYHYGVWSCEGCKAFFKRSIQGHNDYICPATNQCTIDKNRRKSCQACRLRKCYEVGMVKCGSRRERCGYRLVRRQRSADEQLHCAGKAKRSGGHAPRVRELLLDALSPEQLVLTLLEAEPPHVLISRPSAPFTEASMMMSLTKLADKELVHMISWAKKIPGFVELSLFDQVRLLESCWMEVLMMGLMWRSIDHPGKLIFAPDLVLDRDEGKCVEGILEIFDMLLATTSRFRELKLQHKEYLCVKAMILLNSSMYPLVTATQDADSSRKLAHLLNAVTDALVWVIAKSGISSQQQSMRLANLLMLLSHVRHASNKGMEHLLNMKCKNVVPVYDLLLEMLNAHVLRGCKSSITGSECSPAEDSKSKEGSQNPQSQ

Which results are given for `Oc1ccc(C2(c3ccc(O)cc3)c3ccccc3-c3ccccc32)cc1` [BHPF, 9,9-bis(4-hydroxyphenyl)-fluorene]?
maximal serum BHPF level ([1]; human volunteers): 0.7 ng/mL; mean serum BHPF level ([1]; volunteers with detectable BHPF): 0.34 ± 0.21 ng/mL; proliferation of MCF-7 human breast cancer cells [2]: inhibited the proliferation; IC50 [3, 5]: 75.3 nM; oestrogenic activity ([3]; compound alone): no oestrogenic activity; IC50 [3, 6]: 75.3 nM; IC50 [4, 5]: 109 nM; IC50 [4, 6]: 109 nM
